PubChem BioAssay (NCI)
“And” between values parts separate entries of the source, which are not always exact repeats. Equal entries are not always repeated.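 Five compound concentrations were applied to cells in 96-well plates for 48 hours; endpoints were derived by simple linear interpolation of the resulting dose-response curve. GI50 marks 50% less growth. At the TGI there is no net growth.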

Experiments:
Experiment in all cases: growth of human tumour cells (NCI), 48 h
[1] = test system: EKVX NSCLC
[2] = test system: SK-MEL-5 melanoma
[3] = test system: HT29 colon
[4] = test system: SW-620 colon
[5] = test system: SNB-19 CNS
[6] = test system: 786-0 renal
[7] = test system: A498 renal
[8] = test system: COLO 205 colon
[9] = test system: UACC-62 melanoma
[10] = test system: K-562 leukemia

SMILES	TGI [1]	TGI [2]	TGI [3]	TGI [4]	TGI [5]	TGI [6]	TGI [7]	TGI [8]	TGI [9]	TGI [10]	GI50 [1]	GI50 [4]	GI50 [5]	GI50 [6]	GI50 [7]	GI50 [8]	GI50 [9]	GI50 [10]	GI50 [2]	GI50 [3]
COc1cc(CC2c3cc(OC)c(OC)cc3CCN2C)c(C(=O)O)cc1OC (centres undefined)	> 100 µM	> 100 µM	> 100 µM	> 100 µM	> 100 µM	> 100 µM	> 100 µM	> 100 µM	> 100 µM	> 100 µM	–	–	–	–	–	–	–	–	–	–
CC(=O)Nc1ccc(/C=C/C(=O)c2sc(-n3nc(-c4ccccc4)cc3-c3ccccc3)nc2C)cc1	> 100 µM	> 100 µM	> 100 µM	> 100 µM	> 100 µM	> 100 µM	> 100 µM	> 100 µM	> 100 µM	> 100 µM	> 100 µM	> 100000 nM	> 100 µM	> 100000 nM	> 100000 nM	> 100000 nM	> 100000 nM	> 100000 nM	–	–
Cc1n[nH]c(C)c1-c1c(C)n[nH]c1C	4.96 µM	3.18 µM	4.81 µM	4.38 µM	5.13 µM	6.42 µM	4.12 µM	4.23 µM	3.42 µM	> 35.6 µM	1.93 µM	1870 nM	2.06 µM	2370 nM	1820 nM	1920 nM	1560 nM	1940 nM	1740 nM	2010 nM
COc1cnc2c(c1)C(=O)c1c-2n(CCCN2CCNCC2)c(=O)c2cc(F)ccc12	2.08 µM	1.65 µM	0.68 µM	1.46 µM	1.24 µM	0.511 µM	1.9 µM	1.44 µM	3.02 µM	1.44 µM	0.441 µM	110 nM	0.13 µM	127 nM	352 nM	150 nM	1260 nM	148 nM	217 nM	150 nM
CS(=O)c1cc(=O)c2ccccc2s1 (centres undefined)	20.5 µM	22.4 µM	12.9 µM	4.2 µM	32.3 µM	7.41 µM	25.4 µM	4.65 µM	17.6 µM	7.57 µM	–	–	–	–	–	–	–	–	–	–
CCOc1ccc(-c2nc3ccc(-c4nc5ccc(N6CCN(C)CC6)cc5[nH]4)cc3[nH]2)cc1OCC	> 100 µM	3.71 µM	12.1 µM	2.89 µM	11.1 µM	5.93 µM	4.58 µM	2 µM	2.58 µM	9.01 µM	5.06 µM	796 nM	2 µM	2080 nM	1510 nM	322 nM	643 nM	778 nM	1290 nM	2600 nM
C=C(C)[C@@H]1CC[C@]2(C(=O)OC)CC[C@]3(C)[C@H](CC[C@@H]4[C@@]5(C)CC/C(=N\OCCC(=NCCC#N)NOCCC#N)C(C)(C)[C@@H]5CC[C@]43C)[C@@H]12	> 50 µM	10 µM	26.2 µM	> 50 µM	> 50 µM	16.4 µM	> 50 µM	> 50 µM	12.6 µM	> 50 µM	4.77 µM	4450 nM	12.6 µM	6420 nM	21700 nM	9020 nM	2320 nM	2230 nM	3020 nM	6700 nM
CC1SC(c2ccc(OCc3ccccc3)cc2)N(NC(=O)C(O)(c2ccccc2)c2ccccc2)C1=O (centres undefined)	22.5 µM	20.7 µM	7.68 µM	12.7 µM	21.5 µM	4.64 µM	13.7 µM	4.26 µM	16 µM	> 100 µM	5.49 µM	3610 nM	5 µM	1980 nM	3340 nM	1980 nM	3690 nM	3360 nM	8260 nM	3050 nM
CC1(C)CCC(c2ccc(Cl)cc2)=C(CN2CCN(c3ccc(C(=O)NS(=O)(=O)c4ccc(N[C@H](CCN5CCOCC5)CSc5ccccc5)c(S(=O)(=O)C(F)(F)F)c4)cc3)CC2)C1	3.24 µM	2.93 µM	3.97 µM	3.8 µM	9.14 µM	3.4 µM	0.115 µM	2.68 µM	2.92 µM	8.02 µM	1.43 µM	1790 nM	2.68 µM	1880 nM	19.1 nM	1240 nM	1430 nM	2450 nM	1570 nM	1910 nM
O=C(NC(=Nc1ccccc1)SCCSC(=Nc1ccccc1)NC(=O)c1ccccc1)c1ccccc1	> 100 µM	> 100 µM	> 100 µM	> 100 µM	> 100 µM	> 100 µM	> 100 µM	> 100 µM	> 100 µM	> 100 µM	–	–	–	–	–	–	–	–	–	–
CN1CC[C@H](N(C)C(=O)N2CC(c3cc(F)ccc3F)=C[C@@]2(CO)c2ccccc2)[C@H](F)C1	> 100 µM	14.1 µM	> 100 µM	> 100 µM	> 100 µM	> 100 µM	24.8 µM	3.77 µM	25 µM	> 100 µM	–	8.54 nM	0.0259 µM	7.2 nM	21.1 nM	–	38.6 nM	7.44 nM	4.71 nM	41.1 nM
Cc1c(Cl)ccc2[s+]snc12	> 100 µM	52.1 µM	> 100 µM	52.2 µM	> 100 µM	36.2 µM	> 100 µM	> 100 µM	45.2 µM	73.7 µM	–	–	–	–	–	–	–	–	–	–
Nc1nc(-c2ccccn2)c(-c2ccc3ncccc3n2)s1	> 25 µM	> 25 µM	> 25 µM	> 25 µM	> 25 µM	> 25 µM	> 25 µM	> 25 µM	> 25 µM	> 25 µM	> 25 µM	> 25000 nM	> 25 µM	> 25000 nM	> 25000 nM	> 25000 nM	> 25000 nM	> 25000 nM	> 25000 nM	> 25000 nM
Nc1c2ccccc2nc2ccccc12	–	2.99 µM and 4.46 µM	3.23 µM and 7.34 µM	5.95 µM and 22.6 µM	12.9 µM and 20.7 µM	11.4 µM and 14.7 µM	2.37 µM and 7.28 µM	2.36 µM and 4.45 µM	3.45 µM and 6.88 µM	12.5 µM and 25.1 µM	1.78 µM and 3.46 µM	1060 nM and 3060 nM	1.82 µM and 3.61 µM	2610 nM and 3640 nM	1070 nM and 2180 nM	966 nM and 1830 nM	1510 nM and 2420 nM	3160 nM and 3060 nM	1620 nM and 2120 nM	980 nM and 1940 nM
N#CSc1c[nH]c2cccc(/C=C/C(=O)/C=C(O)/C=C/c3cccc4[nH]cc(SC#N)c34)c12	2.13 µM	0.982 µM	2.05 µM	0.555 µM	3.2 µM	2.14 µM	4.27 µM	1.07 µM	1.63 µM	> 33.3 µM	0.285 µM	151 nM	0.649 µM	684 nM	1030 nM	423 nM	400 nM	148 nM	467 nM	496 nM
COc1cc(Br)c(C2OCCCO2)cc1OCc1ccccc1	> 100 µM	> 100 µM	> 100 µM	> 100 µM	> 100 µM	> 100 µM	> 100 µM	> 100 µM	> 100 µM	> 100 µM	–	–	–	–	–	–	–	–	–	–
CC(C)CC(=O)O[C@H]1C(=O)O[C@@H]2C[C@H]3[C@H](C)C(=O)C(O[C@@H]4O[C@H](CO)[C@@H](O)[C@H](O)[C@H]4O)=C[C@]3(C)[C@H]3[C@@H](O)[C@H](O)[C@]4(C(=O)O)OC[C@]32[C@@H]14	> 100 µM	> 100 µM	> 100 µM	> 100 µM	> 100 µM	> 100 µM	> 100 µM	> 100 µM	> 100 µM	> 100 µM	> 100 µM	> 100000 nM	31.9 µM	> 100000 nM	> 100000 nM	> 100000 nM	–	24000 nM	28400 nM	34000 nM
CC[C@@]12CC(C(=O)OC)=C3Nc4ccccc4[C@@]34CCN(C[C@H]3O[C@H]31)[C@@H]24	> 100 µM	57.7 µM	> 100 µM	> 100 µM	30.7 µM	> 100 µM	> 100 µM	> 100 µM	> 100 µM	> 100 µM	40.2 µM	35900 nM	16.1 µM	> 100000 nM	27500 nM	34400 nM	17700 nM	23200 nM	21200 nM	29200 nM
O=C1Nc2ccc(I)cc2/C1=C/c1cc(Br)c(O)c(Br)c1	> 84.1 µM	> 25 µM and 23.6 µM	> 25 µM and 52.5 µM	> 25 µM and 51.1 µM	> 94.3 µM	> 25 µM and 45.5 µM	> 25 µM and 41.9 µM	> 25 µM and 71.4 µM	> 25 µM and 29.6 µM	> 100 µM	> 17.5 µM and 13.8 µM	24800 nM and 22000 nM	> 21.6 µM and 31.1 µM	> 24100 nM and 18200 nM	> 16300 nM and 20300 nM	24300 nM and 18300 nM	11500 nM and 8430 nM	> 51900 nM	13000 nM and 10500 nM	> 20600 nM and 13500 nM
O=C1N(c2ccccc2)C2(O)C(=O)c3ccccc3C2(O)N1c1ccccc1 (centres undefined)	> 100 µM	> 100 µM	> 100 µM	> 100 µM	> 100 µM	> 100 µM	> 100 µM	> 100 µM	> 100 µM	> 100 µM	–	–	–	–	–	–	–	–	–	–
O=C(/C=C/c1ccccc1)c1ccccn1	45.5 µM and 41 µM	28.5 µM and 88.6 µM	28.9 µM and 48.3 µM	58.9 µM and > 100 µM	31 µM and > 100 µM	24.7 µM and 40.9 µM	29.6 µM and 37.6 µM	32.9 µM and 45.7 µM	36.8 µM and 41.4 µM	36.6 µM and > 100 µM	–	–	15.1 µM and 31.9 µM	–	–	–	–	4360 nM and 21600 nM	–	–
Nc1nc(N)c2nc(CNc3ccc(C(=O)NC(CCC(=O)O)C(=O)O)cc3)cnc2n1 (centres undefined)	> 100 µM	> 100 µM	> 100 µM	> 100 µM	> 100 µM	> 100 µM	> 100 µM	> 100 µM	> 100 µM	> 100 µM	4.69 µM	< 10 nM	0.0634 µM and 0.0656 µM	< 10 nM	62 nM and 48.8 nM	–	27.4 nM and < 10 nM	< 10 nM	58.5 nM and 30.9 nM	< 10 nM
O=c1[nH]c2c(ccc3cnccc32)c2c1CCC2	> 100 µM	0.517 µM	> 100 µM	1.84 µM	> 100 µM	29.9 µM	0.553 µM	0.677 µM	0.622 µM	> 100 µM	1.47 µM	308 nM	0.356 µM	344 nM	155 nM	241 nM	214 nM	657 nM	196 nM	447 nM
N#CCC1CCN(c2nc(Nc3ccc(N4CCC(O)CC4)cc3)c3c(=O)[nH]ncc3n2)CC1	> 100 µM	> 100 µM	> 100 µM	> 100 µM	> 100 µM	> 100 µM	1.74 µM	–	> 100 µM	> 100 µM	1.85 µM	443 nM	5.02 µM	820 nM	342 nM	374 nM	> 100000 nM	1510 nM	> 100000 nM	283 nM
O=C(CNC(=O)c1cccc2ccccc12)Nc1ccccc1Oc1ccc(O)cc1	> 25 µM	> 25 µM	> 25 µM	> 25 µM	> 25 µM	> 25 µM	9.97 µM	3.56 µM	> 25 µM	> 25 µM	1.17 µM	911 nM	1.42 µM	1040 nM	1010 nM	796 nM	1170 nM	497 nM	846 nM	992 nM
NC1=Nc2cc(OCCCCN3Cc4ccccc4C3)c(OCC3CC3)cc2C12CCCC2	14.5 µM	3.1 µM	3.13 µM	3.48 µM	12.4 µM	3.03 µM	4.91 µM	3.11 µM	3.11 µM	1.73 µM	2.77 µM	1700 nM	3.28 µM	1540 nM	951 nM	1450 nM	1690 nM	398 nM	1710 nM	1260 nM
Cc1cc(Br)ccc1N=NC1C(=O)ON=C1c1ccccc1 (centres undefined)	> 100 µM	> 100 µM	> 100 µM	> 100 µM	> 100 µM	> 100 µM	> 100 µM	29.6 µM	> 100 µM	> 100 µM	–	–	–	–	–	–	–	–	–	–
